Assay results published in BindingDB's records for patent US12247004 (Oxford Drug Design, 2025).

Experiments:
Isoleucine--tRNA ligase = Isoleucine--tRNA ligase (Escherichia coli (strain K12), UniProt P00956); assay: Enzyme Inhibition Assay
Protocol: (§1) Single Point Percentage InhibitionThe activity of the pathogenic aaRSs was monitored by measuring AMP production using the commercial kit AMP-Glo (Promega, Madison, USA).Ligand stock solutions were prepared in 100% DMSO at 10 mM concentration. An assay buffer consisting of 100 mM Tris HCl pH 7.6, 40 mM MgCl, 20 mM KCl and 150 mM NaCl was prepared in dH2O. […] A substrate solution was also prepared in assay buffer with 50 mM L-leucine, 10 mM ATP and 100 mg/mL tRNA.

Leucine--tRNA ligase = Leucine--tRNA ligase (Escherichia coli (strain K12), UniProt P07813); assay: Enzyme Inhibition Assay
Leucine--tRNA ligase, sequence (P07813 whole entry): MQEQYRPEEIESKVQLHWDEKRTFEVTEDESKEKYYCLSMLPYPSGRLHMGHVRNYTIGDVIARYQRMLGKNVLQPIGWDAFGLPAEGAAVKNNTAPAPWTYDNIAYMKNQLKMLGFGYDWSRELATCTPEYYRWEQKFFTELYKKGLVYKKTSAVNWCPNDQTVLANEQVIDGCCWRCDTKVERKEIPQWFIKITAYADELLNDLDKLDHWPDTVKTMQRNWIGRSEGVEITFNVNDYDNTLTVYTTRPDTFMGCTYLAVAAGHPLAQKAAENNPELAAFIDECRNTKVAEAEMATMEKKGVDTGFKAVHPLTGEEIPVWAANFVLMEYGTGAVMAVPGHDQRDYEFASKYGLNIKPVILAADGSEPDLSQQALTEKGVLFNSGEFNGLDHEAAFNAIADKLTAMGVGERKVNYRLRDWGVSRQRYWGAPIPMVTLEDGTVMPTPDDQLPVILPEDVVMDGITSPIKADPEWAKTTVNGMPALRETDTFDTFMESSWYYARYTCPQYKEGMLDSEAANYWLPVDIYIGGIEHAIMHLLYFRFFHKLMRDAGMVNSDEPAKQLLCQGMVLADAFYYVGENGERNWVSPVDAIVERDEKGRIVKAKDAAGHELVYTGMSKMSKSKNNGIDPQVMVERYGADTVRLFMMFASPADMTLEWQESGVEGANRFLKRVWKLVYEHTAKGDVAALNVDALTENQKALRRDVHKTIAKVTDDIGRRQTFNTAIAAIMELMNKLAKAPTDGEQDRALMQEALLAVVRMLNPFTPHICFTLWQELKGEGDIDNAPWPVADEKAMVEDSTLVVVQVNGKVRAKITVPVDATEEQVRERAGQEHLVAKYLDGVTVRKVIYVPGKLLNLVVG
Protocol: as §1

Isoleucine--tRNA ligase, sequence (P00956 whole entry): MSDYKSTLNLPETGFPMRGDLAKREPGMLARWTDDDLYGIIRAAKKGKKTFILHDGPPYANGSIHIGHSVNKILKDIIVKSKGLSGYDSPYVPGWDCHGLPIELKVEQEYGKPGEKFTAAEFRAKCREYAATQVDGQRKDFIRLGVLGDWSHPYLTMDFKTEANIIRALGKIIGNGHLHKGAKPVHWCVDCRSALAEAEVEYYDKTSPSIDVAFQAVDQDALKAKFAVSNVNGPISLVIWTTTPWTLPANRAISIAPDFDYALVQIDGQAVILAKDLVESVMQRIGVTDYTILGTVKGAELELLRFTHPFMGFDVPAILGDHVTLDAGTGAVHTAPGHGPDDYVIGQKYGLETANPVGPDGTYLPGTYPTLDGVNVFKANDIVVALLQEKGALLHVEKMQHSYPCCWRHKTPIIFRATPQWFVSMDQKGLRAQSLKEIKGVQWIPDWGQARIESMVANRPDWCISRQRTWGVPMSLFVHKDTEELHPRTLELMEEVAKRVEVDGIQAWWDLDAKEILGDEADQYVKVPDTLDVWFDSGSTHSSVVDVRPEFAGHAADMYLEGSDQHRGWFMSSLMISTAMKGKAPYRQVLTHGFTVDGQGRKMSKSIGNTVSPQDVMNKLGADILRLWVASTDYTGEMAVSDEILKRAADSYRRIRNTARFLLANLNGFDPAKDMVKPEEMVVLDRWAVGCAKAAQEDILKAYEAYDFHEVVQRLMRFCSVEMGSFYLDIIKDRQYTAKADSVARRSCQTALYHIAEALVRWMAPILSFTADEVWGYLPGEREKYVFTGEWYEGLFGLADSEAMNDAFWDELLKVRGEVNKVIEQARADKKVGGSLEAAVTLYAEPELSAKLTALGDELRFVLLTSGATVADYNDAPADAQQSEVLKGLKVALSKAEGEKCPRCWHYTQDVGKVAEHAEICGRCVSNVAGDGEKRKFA

Q: `CC[C@H](C)[C@H](N)C(=O)N=S(N)(=O)c1ccc2ccccc2c1` (some centres not stated) [US12247004, Compound ANASIA-030] was tested. Which IC50 (Isoleucine--tRNA ligase) did it give?
A: 9.59 µM

Q: Which IC50 (Leucine--tRNA ligase) does the source give for `CC(C)C[C@H](N)C(=O)N=S(N)(=O)c1cc[nH]n1` (some centres not stated) [US12247004, Compound ANASIA-064] here?
A: 2.17 µM
